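At the GI50, growth is halved. TGI: total growth inhibition.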
How the values were obtained:
Test in all cases: NCI tumour cell line growth inhibition, 384-well format
RXF 393 renal = tested on: RXF 393 renal
SK-OV-3 ovarian = tested on: SK-OV-3 ovarian
OVCAR-5 ovarian = tested on: OVCAR-5 ovarian
NCI-H460 NSCLC = tested on: NCI-H460 NSCLC
RPMI-8226 leukemia = tested on: RPMI-8226 leukemia
T-47D breast = tested on: T-47D breast
786-0 renal = tested on: 786-0 renal
OVCAR-4 ovarian = tested on: OVCAR-4 ovarian
SF-539 CNS = tested on: SF-539 CNS
NCI-H23 lung = tested on: NCI-H23 lung
HCT-116 colon = tested on: HCT-116 colon
UACC-62 melanoma = tested on: UACC-62 melanoma
HOP-62 NSCLC = tested on: HOP-62 NSCLC
K-562 leukemia = tested on: K-562 leukemia
KM12 colon = tested on: KM12 colon
SF-268 CNS = tested on: SF-268 CNS
SK-MEL-2 melanoma = tested on: SK-MEL-2 melanoma
NCI-H226 lung = tested on: NCI-H226 lung
HCT-15 colon = tested on: HCT-15 colon
SNB-19 CNS = tested on: SNB-19 CNS
SW-620 colon = tested on: SW-620 colon
CAKI-1 renal = tested on: CAKI-1 renal
HT29 colon = tested on: HT29 colon
MDA-MB-435 melanoma = tested on: MDA-MB-435 melanoma
A498 renal = tested on: A498 renal
M14 melanoma = tested on: M14 melanoma
DU-145 prostate = tested on: DU-145 prostate
MALME-3M melanoma = tested on: MALME-3M melanoma
UO-31 renal = tested on: UO-31 renal
A549 NSCLC = tested on: A549 NSCLC
UACC-257 melanoma = tested on: UACC-257 melanoma
OVCAR-3 ovarian = tested on: OVCAR-3 ovarian
NCI-H522 lung = tested on: NCI-H522 lung
SNB-75 CNS = tested on: SNB-75 CNS
SK-MEL-28 melanoma = tested on: SK-MEL-28 melanoma
SF-295 CNS = tested on: SF-295 CNS
IGROV1 ovarian = tested on: IGROV1 ovarian
COLO 205 colon = tested on: COLO 205 colon
HOP-92 NSCLC = tested on: HOP-92 NSCLC
SK-MEL-5 melanoma = tested on: SK-MEL-5 melanoma
ACHN renal = tested on: ACHN renal
LOX IMVI melanoma = tested on: LOX IMVI melanoma
MCF7 breast = tested on: MCF7 breast
MOLT-4 leukemia = tested on: MOLT-4 leukemia
MDA-MB-231 breast = tested on: MDA-MB-231 breast
CCRF-CEM leukemia = tested on: CCRF-CEM leukemia
U251 glioblastoma = tested on: U251 glioblastoma
BT-549 breast = tested on: BT-549 breast
SN12C renal = tested on: SN12C renal
HL-60(TB) leukemia = tested on: HL-60(TB) leukemia
NCI-H322M lung = tested on: NCI-H322M lung
HS 578T breast = tested on: HS 578T breast
TK-10 renal = tested on: TK-10 renal
PC-3 prostate = tested on: PC-3 prostate
HCC-2998 colon = tested on: HCC-2998 colon
SR leukemia = tested on: SR leukemia
NCI/ADR-RES ovarian = tested on: NCI/ADR-RES ovarian
MDA-MB-468 breast = tested on: MDA-MB-468 breast

Which GI50 (RXF 393 renal) does the source give for `COc1cccc(Nc2ncnn3ccc(CN4CC[C@@H](N)[C@H](O)C4)c23)c1` here?
Its GI50 is 0.435 µM.

What about the TGI (RXF 393 renal) of the same molecule?
Its TGI is 3.21 µM.

What about the GI50 (SK-OV-3 ovarian) of the same molecule?
The GI50 was 0.0333 µM.

What about the TGI (SK-OV-3 ovarian) of the same molecule?
The TGI was 0.607 µM.

What about the GI50 (OVCAR-5 ovarian) of the same molecule?
Its GI50 is 0.686 µM.

What about the TGI (OVCAR-5 ovarian) of the same molecule?
Its TGI is 43.9 µM.

What about the GI50 (NCI-H460 NSCLC) of the same molecule?
Its GI50 is 11.3 µM.

And the TGI (NCI-H460 NSCLC)?
Its TGI is 24.3 µM.

What about the GI50 (RPMI-8226 leukemia) of the same molecule?
The GI50 was 16.4 µM.

And the TGI (RPMI-8226 leukemia)?
The TGI was 30.2 µM.

What about the GI50 (T-47D breast) of the same molecule?
Its GI50 is 15.8 µM.

And the TGI (T-47D breast)?
Its TGI is 30.2 µM.

What about the GI50 ([…]-0 renal) of the same molecule?
Its GI50 is 0.989 µM.

And the TGI (786-0 renal)?
The TGI was 14.4 µM.

And the GI50 (OVCAR-4 ovarian)?
Its GI50 is 24.8 µM.

And the TGI (OVCAR-4 ovarian)?
Its TGI is greater than 100 µM.

What about the GI50 (SF-539 CNS) of the same molecule?
Its GI50 is 1.55 µM.

And the TGI (SF-539 CNS)?
The TGI was 13.1 µM.

And the GI50 (NCI-H23 lung)?
Its GI50 is 2.42 µM.

And the TGI (NCI-H23 lung)?
Its TGI is 16.8 µM.

And the GI50 (HCT-116 colon)?
Its GI50 is 12.3 µM.

And the TGI (HCT-116 colon)?
Its TGI is 25.6 µM.

And the GI50 (UACC-62 melanoma)?
Its GI50 is 16.1 µM.

And the TGI (UACC-62 melanoma)?
The TGI was 29.8 µM.

And the GI50 (HOP-62 NSCLC)?
Its GI50 is 2.7 µM.

What about the TGI (HOP-62 NSCLC) of the same molecule?
The TGI was 30.2 µM.

And the GI50 (K-562 leukemia)?
Its GI50 is 0.0847 µM.

What about the TGI (K-562 leukemia) of the same molecule?
The TGI was 0.228 µM.

What about the GI50 (KM12 colon) of the same molecule?
The GI50 was 3.54 µM.

What about the TGI (KM12 colon) of the same molecule?
Its TGI is 15.7 µM.

What about the GI50 (SF-268 CNS) of the same molecule?
The GI50 was 4.4 µM.

What about the TGI (SF-268 CNS) of the same molecule?
The TGI was 70.3 µM.

What about the GI50 (SK-MEL-2 melanoma) of the same molecule?
The GI50 was 26.7 µM.

What about the TGI (SK-MEL-2 melanoma) of the same molecule?
Its TGI is 41.5 µM.

And the GI50 (NCI-H226 lung)?
The GI50 was 1.97 µM.

What about the TGI (NCI-H226 lung) of the same molecule?
Its TGI is 12.4 µM.

What about the GI50 (HCT-15 colon) of the same molecule?
Its GI50 is 2.32 µM.

What about the TGI (HCT-15 colon) of the same molecule?
Its TGI is 32.7 µM.

What about the GI50 (SNB-19 CNS) of the same molecule?
Its GI50 is 15.4 µM.

And the TGI (SNB-19 CNS)?
The TGI was 83.6 µM.

And the GI50 (SW-620 colon)?
Its GI50 is 17.5 µM.

What about the TGI (SW-620 colon) of the same molecule?
The TGI was 32.5 µM.

What about the GI50 (CAKI-1 renal) of the same molecule?
Its GI50 is 0.295 µM.

And the TGI (CAKI-1 renal)?
The TGI was 7.12 µM.

What about the GI50 (HT29 colon) of the same molecule?
The GI50 was 12.8 µM.

And the TGI (HT29 colon)?
Its TGI is 26.4 µM.

What about the GI50 (MDA-MB-435 melanoma) of the same molecule?
Its GI50 is 18.2 µM.

What about the TGI (MDA-MB-435 melanoma) of the same molecule?
Its TGI is 36.6 µM.

What about the GI50 (A498 renal) of the same molecule?
Its GI50 is 1.3 µM.

What about the TGI (A498 renal) of the same molecule?
Its TGI is 9 µM.

What about the GI50 (M14 melanoma) of the same molecule?
Its GI50 is 19 µM.

What about the TGI (M14 melanoma) of the same molecule?
Its TGI is 33.2 µM.

What about the GI50 (DU-145 prostate) of the same molecule?
The GI50 was 1.11 µM.

And the TGI (DU-145 prostate)?
The TGI was 28.4 µM.

And the GI50 (MALME-3M melanoma)?
Its GI50 is 12.8 µM.

And the TGI (MALME-3M melanoma)?
Its TGI is 25.5 µM.

And the GI50 (UO-31 renal)?
The GI50 was 1.1 µM.

What about the TGI (UO-31 renal) of the same molecule?
The TGI was 7.47 µM.

What about the GI50 (A549 NSCLC) of the same molecule?
Its GI50 is 0.902 µM.

What about the TGI (A549 NSCLC) of the same molecule?
The TGI was 14.4 µM.

What about the GI50 (UACC-257 melanoma) of the same molecule?
Its GI50 is 11.3 µM.

And the TGI (UACC-257 melanoma)?
Its TGI is 23.5 µM.

What about the GI50 (OVCAR-3 ovarian) of the same molecule?
Its GI50 is 0.0815 µM.

What about the TGI (OVCAR-3 ovarian) of the same molecule?
Its TGI is 21.8 µM.

What about the TGI (NCI-H522 lung) of the same molecule?
The TGI was 9.99 µM.

And the GI50 (SNB-75 CNS)?
The GI50 was 0.247 µM.

And the TGI (SNB-75 CNS)?
The TGI was 1.37 µM.

And the GI50 (SK-MEL-28 melanoma)?
The GI50 was 18.3 µM.

What about the TGI (SK-MEL-28 melanoma) of the same molecule?
Its TGI is 32.4 µM.

And the GI50 (SF-295 CNS)?
Its GI50 is 13.9 µM.

And the TGI (SF-295 CNS)?
Its TGI is 30.9 µM.

And the TGI (IGROV1 ovarian)?
Its TGI is 0.512 µM.

And the GI50 (COLO 205 colon)?
Its GI50 is 14.8 µM.

And the TGI (COLO 205 colon)?
The TGI was 28.2 µM.

What about the GI50 (HOP-92 NSCLC) of the same molecule?
The GI50 was 6.62 µM.

What about the TGI (HOP-92 NSCLC) of the same molecule?
Its TGI is 28.9 µM.

What about the GI50 (SK-MEL-5 melanoma) of the same molecule?
Its GI50 is 15.6 µM.

And the TGI (SK-MEL-5 melanoma)?
The TGI was 29 µM.

And the GI50 (ACHN renal)?
Its GI50 is 0.0368 µM.

And the TGI (ACHN renal)?
The TGI was 5.84 µM.

And the GI50 (LOX IMVI melanoma)?
The GI50 was 7.68 µM.

What about the TGI (LOX IMVI melanoma) of the same molecule?
The TGI was 20.4 µM.

What about the GI50 (MCF7 breast) of the same molecule?
Its GI50 is 13.9 µM.

And the TGI (MCF7 breast)?
The TGI was 27.4 µM.

And the GI50 (MOLT-4 leukemia)?
Its GI50 is 0.8 µM.

What about the TGI (MOLT-4 leukemia) of the same molecule?
The TGI was 13.9 µM.

And the GI50 (MDA-MB-231 breast)?
The GI50 was 1.99 µM.

And the TGI (MDA-MB-231 breast)?
Its TGI is 25.4 µM.

What about the GI50 (CCRF-CEM leukemia) of the same molecule?
Its GI50 is 14.7 µM.

What about the TGI (CCRF-CEM leukemia) of the same molecule?
Its TGI is 28 µM.

What about the GI50 (U251 glioblastoma) of the same molecule?
Its GI50 is 12.9 µM.

What about the TGI (U251 glioblastoma) of the same molecule?
The TGI was 26.4 µM.

What about the GI50 (BT-549 breast) of the same molecule?
Its GI50 is 7.04 µM.

What about the TGI (BT-549 breast) of the same molecule?
Its TGI is 20.5 µM.

What about the GI50 (SN12C renal) of the same molecule?
Its GI50 is 0.18 µM.

What about the TGI (SN12C renal) of the same molecule?
The TGI was 12 µM.

And the GI50 (HL-60(TB) leukemia)?
The GI50 was 17.6 µM.

And the TGI (HL-60(TB) leukemia)?
Its TGI is 31.5 µM.

What about the GI50 (NCI-H322M lung) of the same molecule?
The GI50 was 0.0313 µM.

What about the TGI (NCI-H322M lung) of the same molecule?
Its TGI is 0.941 µM.

And the GI50 (HS 578T breast)?
The GI50 was 1.49 µM.

And the TGI (HS 578T breast)?
Its TGI is 6.24 µM.

And the GI50 (TK-10 renal)?
Its GI50 is 0.0524 µM.

What about the TGI (TK-10 renal) of the same molecule?
Its TGI is 1.27 µM.

And the GI50 (PC-3 prostate)?
The GI50 was 13.3 µM.

What about the TGI (PC-3 prostate) of the same molecule?
Its TGI is 87.7 µM.

What about the GI50 (HCC-2998 colon) of the same molecule?
Its GI50 is 12.5 µM.

And the TGI (HCC-2998 colon)?
The TGI was 25.5 µM.

And the GI50 (SR leukemia)?
The GI50 was 12.5 µM.

And the TGI (SR leukemia)?
Its TGI is 25.2 µM.

And the GI50 (NCI/ADR-RES ovarian)?
The GI50 was 11.2 µM.

And the TGI (NCI/ADR-RES ovarian)?
Its TGI is 27.6 µM.

And the GI50 (MDA-MB-468 breast)?
Its GI50 is 0.0266 µM.

What about the TGI (MDA-MB-468 breast) of the same molecule?
Its TGI is 0.203 µM.
